Assay results taken from PubChem BioAssay AID248 (DTP/NCI, 2004).
Values joined by “and” are separate entries in the source; they are usually repeats but may differ in a detail not shown here. Equal values may be shown once. Toxic doses and inconclusive results are not listed.

Test system: L1210 leukemia ip in BDF1 mice, survival T/C
Assay: NCI In Vivo Anticancer Drug Screen. Data for tumor model L1210 Leukemia (intraperitoneal) in B6D2F1 (BDF1) mice
Details: endpoint: mean survival time, higher = longer survival
Procedure, shortened: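 Antitumor effect is assessed in tumor-bearing animals. Survival in the compound arm is compared with a vehicle-dosed control arm and expressed as their quotient.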

[1] = dose: 100.0 mg/kg/injection, schedule: Q04DX003 (ip), vehicle: saline
[2] = dose: 200.0 mg/kg/injection, schedule: Q04DX003 (ip), vehicle: saline
[3] = dose: 400.0 mg/kg/injection, schedule: Q04DX003 (ip), vehicle: saline
[4] = dose: 100.0 mg/kg/injection, schedule: Q04DX003 (ip), vehicle: saline with Tween-80
[5] = dose: 400.0 mg/kg/injection, schedule: Q04DX003 (ip), vehicle: saline with Tween-80
[6] = dose: 100.0 mg/kg/injection, schedule: Q01DX009 (ip), vehicle: Klucel (hydroxypropylcellulose) (HPC)
[7] = dose: 200.0 mg/kg/injection, schedule: Q01DX009 (ip), vehicle: Klucel (hydroxypropylcellulose) (HPC)
[8] = dose: 100.0 mg/kg/injection, schedule: Q01DX001 (ip), vehicle: saline
[9] = dose: 5.0 mg/kg/injection, schedule: Q01DX001 (ip), vehicle: saline
[10] = dose: 10.0 mg/kg/injection, schedule: Q01DX001 (ip), vehicle: saline
[11] = dose: 20.0 mg/kg/injection, schedule: Q01DX001 (ip), vehicle: saline
[12] = dose: 200.0 mg/kg/injection, schedule: Q01DX001 (ip), vehicle: saline
[13] = dose: 200.0 mg/kg/injection, schedule: Q04DX003 (ip), vehicle: saline with Tween-80
[14] = dose: 100.0 mg/kg/injection, schedule: Q01DX009 (ip), vehicle: saline with Tween-80

For `OC1CCC(O)CC1` (stereo not drawn), the T/C [1] was 100 % of control, the T/C [2] was 100 % of control and the T/C [3] was 115 % of control.
`CCCCCCCC/C=C\CCCCCCCCOC(=O)Cc1ccc(N(CCCl)CCCl)cc1` was tested, and the T/C (dose: 100.0 mg/kg/injection, schedule: Q01DX005 (ip), vehicle: Klucel (hydroxypropylcellulose) (HPC)) was 119 % of control, the T/C (dose: 100.0 mg/kg/injection, schedule: Q04DX002 (ip), vehicle: Klucel (hydroxypropylcellulose) (HPC)) was 121 % of control and the T/C (dose: 200.0 mg/kg/injection, schedule: Q01DX005 (ip), vehicle: Klucel (hydroxypropylcellulose) (HPC)) was 115 % of control. The T/C (dose: 200.0 mg/kg/injection, schedule: Q04DX002 (ip), vehicle: Klucel (hydroxypropylcellulose) (HPC)) was 117 % of control and the T/C (dose: 400.0 mg/kg/injection, schedule: Q04DX002 (ip), vehicle: Klucel (hydroxypropylcellulose) (HPC)) was 121 % of control.
`N#CC(Oc1ccccc1)c1ccccc1` (stereo not drawn) was tested, and the T/C [4] was 98 % of control and the T/C [5] was 104 % of control.
`COc1ccc([N+](=O)[O-])cc1NC(=O)Nc1cccc(O)c1` was tested, and the T/C (dose: 50.0 mg/kg/injection, schedule: Q01DX009 (ip), vehicle: Klucel (hydroxypropylcellulose) (HPC)) was 90 % of control, the T/C [6] was 90 % of control and the T/C [7] was 90 % of control.
With `COc1cc(N(CCCl)CCCl)c(OC)cc1/C=N\NC(=O)CN(C)C` the T/C (dose: 2.25 mg/kg/injection, schedule: Q01DX015 (ip), vehicle: saline) was 105 % of control, the T/C (dose: 4.5 mg/kg/injection, schedule: Q01DX015 (ip), vehicle: saline) was 108 % of control and the T/C (dose: 6.25 mg/kg/injection, schedule: Q01DX015 (ip), vehicle: saline) was 119 % of control. For the same compound, the T/C (dose: 9.0 mg/kg/injection, schedule: Q01DX015 (ip), vehicle: saline) was 116 % of control, the T/C (dose: 10.5 mg/kg/injection, schedule: Q01DX015 (ip), vehicle: saline) was 114 % of control and the T/C (dose: 12.5 mg/kg/injection, schedule: Q01DX015 (ip), vehicle: saline) was 115 % of control. The T/C (dose: 18.0 mg/kg/injection, schedule: Q01DX015 (ip), vehicle: saline) was 111 % of control and 116 % of control, the T/C (dose: 25.0 mg/kg/injection, schedule: Q01DX015 (ip), vehicle: saline) was 96 % of control and the T/C (dose: 30.0 mg/kg/injection, schedule: Q01DX015 (ip), vehicle: saline) was 88 % of control. The T/C (dose: 36.0 mg/kg/injection, schedule: Q01DX015 (ip), vehicle: saline) was 94 % of control, the T/C (dose: 44.7 mg/kg/injection, schedule: Q01DX001 (ip), vehicle: saline) was 120 % of control and the T/C (dose: 50.0 mg/kg/injection, schedule: Q01DX015 (ip), vehicle: saline) was 90 % of control. The T/C [8] was 162 % of control and the T/C (dose: 150.0 mg/kg/injection, schedule: Q01DX001 (ip), vehicle: saline) was 124 % of control.
In the case of `CC(C)c1cccc(OC(=O)N(C)[Si](C)(C)C)c1`, the T/C [9] is reported as 105 % of control, the T/C [10] is reported as 97 % of control and the T/C [11] is reported as 101 % of control. For the same compound, the T/C (dose: 40.0 mg/kg/injection, schedule: Q01DX001 (ip), vehicle: saline) was 101 % of control.
For `O=C(O)c1ccc(Br)s1`, the T/C [8] was 97 % of control and the T/C [12] was 99 % of control.
`CC1Cc2ccccc2C1=O` (stereo not drawn) was tested, and the T/C [4] was 98 % of control, the T/C [13] was 98 % of control and the T/C [5] was 103 % of control.
`CCCCCN(CCCCC)CCCNc1c2c(nc3ccc(OC)cc13)CCCC2` was tested, and the T/C (dose: 2.5 mg/kg/injection, schedule: Q01DX009 (ip), vehicle: saline) was 100 % of control, the T/C [9] was 98 % of control and the T/C (dose: 5.0 mg/kg/injection, schedule: Q01DX009 (ip), vehicle: saline) was 104 % of control. The T/C (dose: 9.0 mg/kg/injection, schedule: Q01DX001 (ip), vehicle: saline) was 94 % of control and 102 % of control, the T/C [10] was 96 % of control and the T/C (dose: 10.0 mg/kg/injection, schedule: Q01DX009 (ip), vehicle: saline) was 98 % of control. For the same compound, the T/C (dose: 13.0 mg/kg/injection, schedule: Q01DX001 (ip), vehicle: saline) was 94 % of control, the T/C (dose: 14.0 mg/kg/injection, schedule: Q01DX001 (ip), vehicle: saline) was 104 % of control and the T/C [11] was 93 % of control and 102 % of control (2×). The T/C (dose: 20.0 mg/kg/injection, schedule: Q01DX009 (ip), vehicle: saline) was 100 % of control and the T/C (dose: 30.0 mg/kg/injection, schedule: Q01DX001 (ip), vehicle: saline) was 98 % of control.
In the case of `O=[n+]1c2c(n([O-])c3ccccc31)-c1cccc3cccc-2c13`, the T/C (dose: 50.0 mg/kg/injection, schedule: Q04DX003 (ip), vehicle: saline) is reported as 96 % of control, the T/C [8] is reported as 88 % of control and the T/C [1] is reported as 93 % of control. For the same compound, the T/C (dose: 125.0 mg/kg/injection, schedule: Q01DX Z (ip), vehicle: methylcellulose (MC)) was 98 % of control, the T/C [12] was 94 % of control and the T/C [2] was 93 % of control.
With `O=C(Nc1cc(Cl)ccc1Cl)c1cccc(F)c1` the T/C [6] was 92 % of control, the T/C [7] was 98 % of control and the T/C (dose: 400.0 mg/kg/injection, schedule: Q01DX009 (ip), vehicle: Klucel (hydroxypropylcellulose) (HPC)) was 98 % of control.
With `COc1ccc(OC)c(CCN)c1` the T/C (dose: 25.0 mg/kg/injection, schedule: Q01DX009 (ip), vehicle: saline with Tween-80) was 98 % of control, the T/C (dose: 50.0 mg/kg/injection, schedule: Q01DX009 (ip), vehicle: saline with Tween-80) was 105 % of control and the T/C [14] was 104 % of control. The T/C [1] was 107 % of control.
`CC(O)Cc1c[nH]c(=O)[nH]c1=O` (stereo not drawn) was tested, and the T/C (dose: 100.0 mg/kg/injection, schedule: Q01DX009 (ip), vehicle: water) was 98 % of control, the T/C (dose: 100.0 mg/kg/injection, schedule: Q04DX003 (ip), vehicle: water) was 94 % of control and the T/C (dose: 200.0 mg/kg/injection, schedule: Q01DX009 (ip), vehicle: water) was 107 % of control. For the same compound, the T/C (dose: 200.0 mg/kg/injection, schedule: Q04DX003 (ip), vehicle: water) was 98 % of control, the T/C (dose: 400.0 mg/kg/injection, schedule: Q01DX009 (ip), vehicle: water) was 96 % of control and the T/C (dose: 400.0 mg/kg/injection, schedule: Q04DX003 (ip), vehicle: water) was 93 % of control.
`O=C(O)/C=C/C(=O)NCc1ccco1` was tested, and the T/C [14] was 98 % of control, the T/C (dose: 200.0 mg/kg/injection, schedule: Q01DX009 (ip), vehicle: saline with Tween-80) was 96 % of control and the T/C (dose: 400.0 mg/kg/injection, schedule: Q01DX009 (ip), vehicle: saline with Tween-80) was 101 % of control.
For `CC1=C(C)CC(C(Cl)(Cl)Cl)C([N+](=O)[O-])C1` (stereo not drawn), the T/C [14] was 96 % of control.
For `NC(N)=N/N=C(\c1ccc(F)cc1)C1CC1`, the T/C (dose: 15.0 mg/kg/injection, schedule: Q01DX Z (ip), vehicle: methylcellulose (MC)) was 94 % of control, the T/C (dose: 15.0 mg/kg/injection, schedule: Q01DX Z (oral), vehicle: methylcellulose (MC)) was 110 % of control and the T/C (dose: 30.0 mg/kg/injection, schedule: Q01DX Z (ip), vehicle: methylcellulose (MC)) was 95 % of control. For the same compound, the T/C (dose: 30.0 mg/kg/injection, schedule: Q01DX Z (oral), vehicle: methylcellulose (MC)) was 105 % of control, the T/C (dose: 60.0 mg/kg/injection, schedule: Q01DX Z (oral), vehicle: methylcellulose (MC)) was 96 % of control and the T/C (dose: 120.0 mg/kg/injection, schedule: Q01DX Z (oral), vehicle: methylcellulose (MC)) was 104 % of control.
With `CCOP(=O)(OCC)c1cccc(N)c1` the T/C [1] was 100 % of control, the T/C [2] was 87 % of control and the T/C [3] was 100 % of control.
For `CCCOP(=O)(OCCC)C(OC(=O)C(C)(C)Br)=C(C)C`, the T/C [4] was 100 % of control, the T/C [13] was 100 % of control and the T/C [5] was 100 % of control.
With `O=C(Nc1ccc(C(=O)Nc2cccc(C3=NCCN3)c2)cc1)Nc1ccc(C2=NCCN2)cc1` the T/C (dose: 15.0 mg/kg/injection, schedule: Q01DX Z (ip), vehicle: saline) was 202 % of control, the T/C (dose: 30.0 mg/kg/injection, schedule: Q01DX Z (ip), vehicle: saline) was 183 % of control and the T/C (dose: 60.0 mg/kg/injection, schedule: Q01DX Z (ip), vehicle: saline) was 122 % of control. For the same compound, the T/C (dose: 120.0 mg/kg/injection, schedule: Q01DX Z (ip), vehicle: saline) was 100 % of control.
In the case of `Cc1c2oc3c(C)ccc(C(=O)NCCN4CCCCC4)c3nc-2c(C(=O)NCCN2CCCCC2)c(N)c1=O`, the T/C (dose: 100.0 mg/kg/injection, schedule: Q04DX002 (ip), vehicle: saline) is reported as 103 % of control and the T/C (dose: 200.0 mg/kg/injection, schedule: Q04DX002 (ip), vehicle: saline) is reported as 109 % of control.
